EC50 and solubility data for three compounds are collected here from US8722849B2, “Polypeptides” (Novo Nordisk A/S, priority 2011, dated 2014).

≈ marks a conversion by molar mass, not a printed value. Like-named read-outs stand apart in the source and are kept apart here. Starred links: 1 amine or outer side, 2 acyl side, 3 side chain; linkers in the order of their positions; H or OH if unused. Positions of bridges follow the written chain, without caps; N, C: chain ends. Non-standard residues stand in square brackets, D forms with d. Residues, ends and D or L forms follow the SMILES beside them. *: point of attachment. C20 diacid = O=C(O)CCCCCCCCCCCCCCCCCCC(=O)*; C18 diacid = O=C(O)CCCCCCCCCCCCCCCCC(=O)*; γGlu = O=C(O)[C@H](CCC(=O)[*:2])N[*:1]; Orn = NCCC[C@H](N)C(=O)O; AEEA = NCCOCCOCC(=O)O

As usually defined, the EC50 is the concentration that produces a half-maximal response. For orientation: solubility means the concentration that dissolves in the medium under given conditions.

Data set [1] deals with T1, human amylin receptor (amylin 3(a) receptor: human calcitonin receptor + RAMP-3) (Homo sapiens, UniProt O60896+P30988).
T1 construct: expressed in transfected cells; host or cells: BHK570
T1 sequence (P30988 25-474): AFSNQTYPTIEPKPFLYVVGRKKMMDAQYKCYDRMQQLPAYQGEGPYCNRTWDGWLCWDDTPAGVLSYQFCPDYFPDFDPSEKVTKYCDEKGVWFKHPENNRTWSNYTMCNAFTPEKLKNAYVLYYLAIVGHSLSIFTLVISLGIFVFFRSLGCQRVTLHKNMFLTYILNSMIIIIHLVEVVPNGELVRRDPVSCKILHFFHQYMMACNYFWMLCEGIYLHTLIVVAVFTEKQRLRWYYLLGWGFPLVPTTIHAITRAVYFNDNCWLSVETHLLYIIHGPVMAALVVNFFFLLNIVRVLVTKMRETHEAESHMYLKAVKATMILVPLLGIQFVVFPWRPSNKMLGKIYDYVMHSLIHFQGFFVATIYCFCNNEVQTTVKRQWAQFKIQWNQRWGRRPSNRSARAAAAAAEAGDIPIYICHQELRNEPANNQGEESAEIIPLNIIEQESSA
T1 sequence (O60896 24-148 partner): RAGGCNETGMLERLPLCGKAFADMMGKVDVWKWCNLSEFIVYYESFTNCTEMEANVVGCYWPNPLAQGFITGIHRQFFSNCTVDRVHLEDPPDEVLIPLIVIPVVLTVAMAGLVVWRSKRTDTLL
Kind of data set: Assay (II)a functional CRE-luciferase assay, human amylin receptor. Conditions: Table 2; BHK amylin 3(a)-receptor/CRE-luc cells. It counts as cell-based.

Data set [2] concerns the target T2, human calcitonin receptor (Homo sapiens, UniProt P30988).
T2 construct: expressed in transfected cells; host or cells: BHK570
T2 sequence (P30988 25-474): T1 sequence (P30988 25-474)
Kind of data set: Assay (II)a functional CRE-luciferase assay, human calcitonin receptor. It counts as cell-based. As to conditions: Table 7; human calcitonin (CTa) receptor.

For data set [3], the target named is T3, rat amylin 3(a) receptor (rat calcitonin(a) receptor + rat RAMP3) (Rattus norvegicus, UniProt P32214+Q9JJ73).
T3 construct: expressed in transfected cells; host or cells: BHK tk'ts 13
T3 sequence (P32214 25-479 isoform P32214-2 limits assumed): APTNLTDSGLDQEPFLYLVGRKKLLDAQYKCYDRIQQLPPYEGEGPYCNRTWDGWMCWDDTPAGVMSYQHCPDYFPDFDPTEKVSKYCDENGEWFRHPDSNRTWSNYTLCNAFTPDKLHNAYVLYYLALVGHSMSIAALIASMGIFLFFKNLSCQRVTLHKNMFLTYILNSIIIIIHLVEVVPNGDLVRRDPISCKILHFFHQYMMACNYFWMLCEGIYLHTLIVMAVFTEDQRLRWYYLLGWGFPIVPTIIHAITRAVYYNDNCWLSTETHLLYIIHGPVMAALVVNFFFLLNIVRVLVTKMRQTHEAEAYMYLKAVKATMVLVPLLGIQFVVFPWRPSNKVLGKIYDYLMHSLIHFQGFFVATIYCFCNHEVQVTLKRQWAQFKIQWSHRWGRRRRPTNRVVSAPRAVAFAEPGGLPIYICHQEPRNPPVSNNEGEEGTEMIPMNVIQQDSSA
T3 sequence (Q9JJ73 23-147 partner): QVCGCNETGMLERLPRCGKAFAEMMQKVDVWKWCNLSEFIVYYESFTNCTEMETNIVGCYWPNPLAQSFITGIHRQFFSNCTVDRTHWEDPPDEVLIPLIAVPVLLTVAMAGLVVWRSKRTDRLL
Put plainly: Assay (II)b functional cAMP FlashPlate assay, rat amylin receptor. It counts as cell-based. As to conditions: Table 11. In short, it runs like this: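 cAMP accumulation in transiently transfected BHK tk'ts 13 cells, 100.000 cells/well, expressing rat calcitonin(a) receptor or its RAMP3 co-expression form (amylin 3(a)): 30 min stimulation with IBMX, 24 hours post-transfection. Readout by competition of cellular versus radiolabelled cAMP in FlashPlates, scintillation counted after 3 h.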

Data set [4] can be described thus: Assay (IV) determination of solubility. It counts as physicochemical. An outline of the steps: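 Stock ~500 nmol/ml in water; 1:1 with 100 mM buffer, pH 3.0–8.0 (glycylglycine ≤5.0, bistrispropane ≥6.0); 18 h RT; spin; HPLC quantitation of soluble polypeptide.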
[5] abbreviates: bistrispropane buffer, pH 6, pH 6.0, read-out: Solubility pH 6.0.
Setting [6] is: bistrispropane buffer, pH 6.5, pH 6.5, read-out: Solubility pH 6.5.
[7] abbreviates: bistrispropane buffer, pH 7, pH 7.0, 18 hours at room temperature, Table 3, read-out: Solubility pH 7.0.
Setting [8] is: bistrispropane buffer, pH 7, pH 7.0, Table 8, read-out: Solubility pH 7.0.
The mark [9] stands for this setting: bistrispropane buffer, pH 7, pH 7.0, Table 9, read-out: Solubility pH 7.0.
[10] abbreviates: bistrispropane buffer, pH 7, pH 7.0, read-out: Solubility pH 7.0.
Where [11] appears, read: bistrispropane buffer, pH 7.5, pH 7.5, Table 9, read-out: Solubility pH 7.5.
[12] abbreviates: bistrispropane buffer, pH 7.5, pH 7.5, read-out: Solubility pH 7.5.
Setting [13] is: bistrispropane buffer, pH 8, pH 8.0, read-out: Solubility pH 8.0.
Setting [14] is: glycylglycine buffer, pH 3, pH 3.0, read-out: Solubility pH 3.0.
Setting [15] is: glycylglycine buffer, pH 4, pH 4.0, 18 hours at room temperature, Table 2, read-out: Solubility pH 4.0.
Where [16] appears, read: glycylglycine buffer, pH 4, pH 4.0, read-out: Solubility pH 4.0.
The mark [17] stands for this setting: glycylglycine buffer, pH 5, pH 5.0, read-out: Solubility pH 5.0.

In the case of `CC[C@H](C)[C@H](NC(=O)[C@@H]1CCCN1C(=O)CNC(=O)[C@H](Cc1ccccc1)NC(=O)[C@H](CC(N)=O)NC(=O)[C@H](CC(N)=O)NC(=O)[C@H](CO)NC(=O)[C@H](CO)NC(=O)[C@H](Cc1c[nH]cn1)NC(=O)[C@H](Cc1c[nH]cn1)NC(=O)[C@H](CC(C)C)NC(=O)[C@H](Cc1ccccc1)NC(=O)[C@H](CCC(=O)O)NC(=O)[C@H](C)NC(=O)[C@H](CC(C)C)NC(=O)[C@H](CCCNC(=N)N)NC(=O)[C@H](CCC(N)=O)NC(=O)[C@@H](NC(=O)[C@H](C)NC(=O)[C@@H]1CSSC[C@H](NC(=O)[C@H](CCCCN)NC(=O)CC[C@H](NC(=O)CCCCCCCCCCCCCCCCC(=O)O)C(=O)O)C(=O)N[C@@H](CC(N)=O)C(=O)N[C@@H]([C@@H](C)O)C(=O)N[C@@H](C)C(=O)N[C@@H]([C@@H](C)O)C(=O)N1)[C@@H](C)O)C(=O)N[C@@H](CC(C)C)C(=O)N1CCC[C@H]1C(=O)N1CCC[C@H]1C(=O)N[C@H](C(=O)N[C@@H](CC(N)=O)C(=O)N[C@H](C(=O)NCC(=O)N[C@@H](CO)C(=O)N[C@@H](Cc1c[nH]cn1)C(=O)N[C@H](C(=O)N[C@@H](Cc1ccc(O)cc1)C(N)=O)[C@@H](C)O)C(C)C)[C@@H](C)O` [Example 59, N-alpha-[(S)-4-Carboxy-4-(17-carboxyheptadecanoylamino)butyryl]-[Glu14,His17,His35]-pramlintide] ({C18 diacid-γGlu}-KCNTATCATQRLAEFLHHSSNNFGPILPPTNVGSHTY-NH2; disulfide 2-7 (inferred)), the EC50 is 56 pM in data set [1], 60.5 pM in data set [2] and 23 pM in data set [3]. For the same compound, the solubility at 18 h in data set [4] (setting [5]), in data set [4] (setting [6]), in data set [4] (setting [7]), in data set [4] (setting [8]), in data set [4] (setting [9]) and in data set [4] (setting [10]) was more than 200 µM throughout. Besides, the solubility at 18 h in data set [4] (setting [11]), in data set [4] (setting [12]), in data set [4] (setting [13]), in data set [4] (setting [14]), in data set [4] (setting [15]) and in data set [4] (setting [16]) was more than 200 µM each time. Further, the solubility at 18 h in data set [4] (setting [17]) was more than 200 µM.

Take `CC[C@H](C)[C@H](NC(=O)[C@@H]1CCCN1C(=O)CNC(=O)[C@H](Cc1ccccc1)NC(=O)[C@H](CC(N)=O)NC(=O)[C@H](CC(N)=O)NC(=O)[C@H](CO)NC(=O)[C@H](CO)NC(=O)[C@H](CCCNC(=N)N)NC(=O)[C@H](Cc1c[nH]cn1)NC(=O)[C@H](CC(C)C)NC(=O)[C@H](Cc1ccccc1)NC(=O)[C@H](CCC(=O)O)NC(=O)[C@H](C)NC(=O)[C@H](CC(C)C)NC(=O)[C@H](CCCNC(=N)N)NC(=O)[C@H](CCC(N)=O)NC(=O)[C@@H](NC(=O)[C@H](C)NC(=O)[C@@H]1CSSC[C@H](NC(=O)[C@H](CCCN)NC(=O)[C@@H](CCCNC(=N)N)NC(=O)[C@@H](CCCNC(=N)N)NC(=O)COCCOCCNC(=O)COCCOCCNC(=O)CC[C@H](NC(=O)CCCCCCCCCCCCCCCCC(=O)O)C(=O)O)C(=O)N[C@@H](CC(N)=O)C(=O)N[C@@H]([C@@H](C)O)C(=O)N[C@@H](C)C(=O)N[C@@H]([C@@H](C)O)C(=O)N1)[C@@H](C)O)C(=O)N[C@@H](CC(C)C)C(=O)N1CCC[C@H]1C(=O)N1CCC[C@H]1C(=O)N[C@H](C(=O)N[C@@H](CC(N)=O)C(=O)N[C@H](C(=O)NCC(=O)N[C@@H](CO)C(=O)N[C@@H](CC(N)=O)C(=O)N[C@H](C(=O)N[C@@H](Cc1ccc(O)cc1)C(N)=O)[C@@H](C)O)C(C)C)[C@@H](C)O` [Example 120, N-alpha-[2-(2-{2-[2-(2-{2-[(S)-4-Carboxy-4-(17-carboxyheptadecanoylamino)butyrylamino]ethoxy}ethoxy)acetylamino]ethoxy}ethoxy)acetyl]-D-Arg-D-Arg-[Orn1,Glu14,His17,Arg18]-pramlintide] ({C18 diacid-γGlu-AEEA-AEEA}-[dR][dR][Orn]CNTATCATQRLAEFLHRSSNNFGPILPPTNVGSNTY-NH2; disulfide 4-9 (inferred); C-terminus assumed): the half-maximal effective concentration (EC50) in data set [1] turned out to be 29.5 pM; in data set [2], 690 pM; in data set [3], 33 pM. Besides, the solubility at 18 h is more than 200 µM in data set [4] (setting [5]); more than 200 µM in data set [4] (setting [6]); more than 200 µM in data set [4] (setting [7]); more than 200 µM in data set [4] (setting [10]); more than 200 µM in data set [4] (setting [12]); 197 µM (≈ 992 µg/mL) in data set [4] (setting [13]). The solubility at 18 h in data set [4] (setting [14]), in data set [4] (setting [15]), in data set [4] (setting [16]) and in data set [4] (setting [17]) was more than 200 µM throughout.

In the case of `CC[C@H](C)[C@H](NC(=O)[C@@H]1CCCN1C(=O)CNC(=O)[C@H](Cc1ccccc1)NC(=O)[C@H](CC(N)=O)NC(=O)[C@H](CC(N)=O)NC(=O)[C@H](CO)NC(=O)[C@H](CO)NC(=O)[C@H](Cc1c[nH]cn1)NC(=O)[C@H](CCCNC(=N)N)NC(=O)[C@H](CC(C)C)NC(=O)[C@H](Cc1ccccc1)NC(=O)[C@H](CCC(=O)O)NC(=O)[C@H](C)NC(=O)[C@H](CC(C)C)NC(=O)[C@H](CCCNC(=N)N)NC(=O)[C@H](CCC(N)=O)NC(=O)[C@@H](NC(=O)[C@H](C)NC(=O)[C@@H]1CSSC[C@H](NC(=O)[C@H](Cc2c[nH]cn2)NC(=O)CNC(=O)CC[C@H](NC(=O)CCCCCCCCCCCCCCCCCCC(=O)O)C(=O)O)C(=O)N[C@@H](CC(N)=O)C(=O)N[C@@H]([C@@H](C)O)C(=O)N[C@@H](C)C(=O)N[C@@H]([C@@H](C)O)C(=O)N1)[C@@H](C)O)C(=O)N[C@@H](CC(C)C)C(=O)N1CCC[C@H]1C(=O)N1CCC[C@H]1C(=O)N[C@H](C(=O)N[C@@H](CC(N)=O)C(=O)N[C@H](C(=O)NCC(=O)N[C@@H](CO)C(=O)N[C@@H](CC(N)=O)C(=O)N[C@H](C(=O)N1CCC[C@H]1C(N)=O)[C@@H](C)O)C(C)C)[C@@H](C)O` [Example 89, N-alpha-[(S)-4-Carboxy-4-(19-carboxynonadecanoylamino)butyryl]-Gly-[His1,Glu14,Arg17,Pro37]-pramlintide] ({C20 diacid-γGlu}-GHCNTATCATQRLAEFLRHSSNNFGPILPPTNVGSNTP-NH2; disulfide 3-8 (inferred)), the EC50 is 25.5 pM in data set [1], 39.5 pM in data set [2] and 151 pM in data set [3]. Also, the solubility at 18 h in data set [4] (setting [5]), in data set [4] (setting [6]), in data set [4] (setting [7]), in data set [4] (setting [8]), in data set [4] (setting [9]) and in data set [4] (setting [10]) was more than 200 µM throughout. In addition, the solubility at 18 h in data set [4] (setting [11]), in data set [4] (setting [12]), in data set [4] (setting [13]), in data set [4] (setting [14]), in data set [4] (setting [15]) and in data set [4] (setting [16]) was more than 200 µM in each case. The solubility at 18 h in data set [4] (setting [17]) is more than 200 µM.
